Results as given in patent publication US20140107100A1, “Benzoxazepines as Inhibitors of PI3K/mTOR and Methods of Their Use and Manufacture” (EXELIXIS, INC., priority 2010, published 2014).

Target: mTOR/GbL/Raptor (mTORC1) (Homo sapiens, UniProt P42345)
Assay: mTOR/GbL/Raptor (mTORC1) ELISA assay, phosphorylation of 4E-BP1
Format: biochemical
Conditions: 0.2 nM mTORC1, 40 uM ATP, 50 nM NHis-tagged 4E-BP1, 120 minutes; read-out: IC50 in this assay (mTORC1 ELISA)
Description: The measurement of mTORC1 enzyme activity was performed in an ELISA assay format following the phosphorylation of 4E-BP1 protein. All experiments were performed in the 384-well format. Generally, 0.5 μL DMSO containing varying concentrations of the test Compound was mixed with 15 μL enzyme solution. Kinase reactions were initiated with the addition of 15 μL of substrates-containing solution. The assay conditions were-as follows; 0.2 nM mTORC1, 40 uM ATPand 50 nM NHis-tagged4E-BP1 in20 mM Hepes, pH 7.2, 1 mM DTT, 50 mMNaC1, 10 mM MnC12, 0.02 mg/mL BSA, 0.01% CHAPS, 50 mM β-glycerophosphate. Following an incubation of 120 minutes at anibient temperature, 20 μL of the reaction volume was transferred to a Ni-Chelate-coated 384-well plate. The binding step of the 4E-BP1 protein proceeded for 60 minutes, followed by washing 4 times each with 50 uL of Tris-buffered saline solution (TBS). Anti-phospho-4E-BPl rabbit-IgG ([…]. 1:5000) in 5% BSA-TBST (0.2% Tween-20 in TBS) was added and further incubated for 60 minutes. Incubation with a secondary HRP-tagged anti-IgG was similarly performed after washing off the primary antibody (4 washes of 50 μL). Following the final wash step with TBST, 20 μL of SuperSignal ELISA Femto (Pierce Biotechnology) was added and the luminescence measured using an En Vision plate reader.

Compound | IC50 [nM]
CCc1nc(N)nc(N2CCOc3c(C)cc(-c4cnc5sc(N)nc5c4)cc3C2)c1C(C)C [Compound 56, 6-{4-[2-amino-6-ethyl-5-(1-methylethyl)pyrimidin-4-yl]-9-methyl-2,3,4,5-tetrahydro-1,4-benzoxazepin-7-yl}[1,3]thiazolo[5,4-b]pyridin-2-amine] | ≤ 100
Cc1cc(-c2ccn[nH]2)cc2c1OCCN(c1nc(N)nc(C)c1C(C)C)C2 [Compound 72, 4-methyl-5-(1-methylethyl)-6-[9-methyl-7-(1H-pyrazol-5-yl)-2,3-dihydro-1,4-benzoxazepin-4(5H)-yl]pyrimidin-2-amine] | 100 to 500
COc1ncc(-c2cc(C)c3c(c2)CN(c2nc(N)nc(C)c2C(C)C)CCO3)cn1 [Compound 82, 4-methyl-5-(1-methylethyl)-6-{9-methyl-7-[2-(methyloxy)pyrimidin-5-yl]-2,3-dihydro-1,4-benzoxazepin-4(5H)-yl}pyrimidin-2-amine] | 100 to 500
Cc1cc(-c2cnc3sc(N)nc3c2)cc2c1OCCN(c1nc(CN(C)CCF)nc(C)c1C(C)C)C2 [Compound 156, 6-{4-[2-{[(2-fluoroethyl)(methyl)amino]methyl}-6-methyl-5-(1-methylethyl)pyrimidin-4-yl]-9-methyl-2,3,4,5-tetrahydro-1,4-benzoxazepin-7-yl}[1,3]thiazolo[5,4-b]pyridin-2-amine] | ≤ 100
Cc1cc(-c2cnc(N)c(S(N)(=O)=O)c2)cc2c1OCCN(c1nc(N)nc(C)c1C(C)C)C2 [Compound 5, 2-amino-5-{4-[2-amino-6-methyl-5-(1-methylethyl)pyrimidin-4-yl]-9-methyl-2,3,4,5-tetrahydro-1,4-benzoxazepin-7-yl}pyridine-3-sulfonamide] | ≤ 100
Cc1ncc(-c2cc(C)c3c(c2)CN(c2nc(N)nc(C)c2C(C)C)CCO3)s1 [Compound 118, 4-methyl-5-(1-methylethyl)-6-[9-methyl-7-(2-methyl-1,3-thiazol-5-yl)-2,3-dihydro-1,4-benzoxazepin-4(5H)-yl]pyrimidin-2-amine] | 100 to 500
Cc1cc(-c2cnc3sc(N)nc3c2)cc2c1OCCN(c1nc(CN)nc(C)c1C(C)C)C2 [Compound 134, 6-{4-[2-(aminomethyl)-6-methyl-5-(1-methylethyl)pyrimidin-4-yl]-9-methyl-2,3,4,5-tetrahydro-1,4-benzoxazepin-7-yl}[1,3]thiazolo[5,4-b]pyridin-2-amine] | ≤ 100
Cc1cc(-c2nnc(N)s2)cc2c1OCCN(c1nc(N)ncc1C(C)C)C2 [Compound 180, 4-[7-(5-amino-1,3,4-thiadiazol-2-yl)-9-methyl-2,3-dihydro-1,4-benzoxazepin-4(5H)-yl]-5-(1-methylethyl)pyrimidin-2-amine] | ≤ 100
Cc1cc(-c2cn[nH]c2)cc2c1OCCN(c1nc(N)nc(C)c1C(C)C)C2 [Compound 80, 4-methyl-5-(1-methylethyl)-6-[9-methyl-7-(1H-pyrazol-4-yl)-2,3-dihydro-1,4-benzoxazepin-4(5H)-yl]pyrimidin-2-amine] | ≤ 100
Cc1cc(-c2cnc3sc(N)nc3c2)cc2c1OCCN(c1nccc(N)n1)C2 [Compound 25, 6-[4-(4-aminopyrimidin-2-yl)-9-methyl-2,3,4,5-tetrahydro-1,4-benzoxazepin-7-yl][1,3]thiazolo[5,4-b]pyridin-2-amine] | 100 to 500
Cc1cc(-c2cnc3sc(N)nc3c2)cc2c1OCCN(c1nc(C(C)O)nc(C)c1C(C)C)C2 (centres unmarked) [Compound 98, 1-{4-[7-(2-amino[1,3]thiazolo[5,4-b]pyridin-6-yl)-9-methyl-2,3-dihydro-1,4-benzoxazepin-4(5H)-yl]-6-methyl-5-(1-methylethyl)pyrimidin-2-yl}ethanol] | ≤ 100
CNC(=O)c1sc(N2CCOc3c(C)cc(-c4cnc(Cl)c(NS(C)(=O)=O)c4)cc3C2)nc1C(C)C [Compound 22, 2-[7-{6-chloro-5-[(methylsulfonyl)amino]pyridin-3-yl}-9-methyl-2,3-dihydro-1,4-benzoxazepin-4(5H)-yl]-N-methyl-4-(1-methylethyl)-1,3-thiazole-5-carboxamide] | ≤ 100
Cc1cc(-c2cnc3sc(N)nc3c2)cc2c1OCCN(c1nc(C3CCCN3C)nc(C)c1C(C)C)C2 (centres unmarked) [Compound 149, 6-{9-methyl-4-[6-methyl-5-(1-methylethyl)-2-(1-methylpyrrolidin-2-yl)pyrimidin-4-yl]-2,3,4,5-tetrahydro-1,4-benzoxazepin-7-yl}[1,3]thiazolo[5,4-b]pyridin-2-amine] | ≤ 100
Cc1cc(-c2ccc3c(c2)OCO3)cc2c1OCCN(c1nc(N)nc(C)c1C(C)C)C2 [Compound 73, 4-[7-(1,3-benzodioxol-5-yl)-9-methyl-2,3-dihydro-1,4-benzoxazepin-4(5H)-yl]-6-methyl-5-(1-methylethyl)pyrimidin-2-amine] | 100 to 500
Cc1cc(-c2nnc(N)s2)cc2c1OCCN(c1ncnc(C)c1C)C2 [Compound 176, 5-[4-(5,6-dimethylpyrimidin-4-yl)-9-methyl-2,3,4,5-tetrahydro-1,4-benzoxazepin-7-yl]-1,3,4-thiadiazol-2-amine] | ≤ 100
Cc1cc(-c2cnc3sc(N)nc3c2)cc2c1OCCN(c1ncnc3c1CC[C@H](C)C3)C2 [Compound 30, 6-{9-methyl-4-[(7S)-7-methyl-5,6,7,8-tetrahydroquinazolin-4-yl]-2,3,4,5-tetrahydro-1,4-benzoxazepin-7-yl}[1,3]thiazolo[5,4-b]pyridin-2-amine] | ≤ 100
CCN(Cc1nc(C)c(C(C)C)c(N2CCOc3c(C)cc(-c4cnc5nc[nH]c5c4)cc3C2)n1)CC(F)F [Compound 171, N-ethyl-2,2-difluoro-N-({4-[7-(1H-imidazo[4,5-b]pyridin-6-yl)-9-methyl-2,3-dihydro-1,4-benzoxazepin-4(5H)-yl]-6-methyl-5-(1-methylethyl)pyrimidin-2-yl}methyl)ethanamine] | 100 to 500
Cc1ncc(C(C)C)c(N2CCOc3c(C)cc(-c4cnc5sc(N)nc5c4)cc3C2)n1 [Compound 107, 6-{9-methyl-4-[2-methyl-5-(1-methylethyl)pyrimidin-4-yl]-2,3,4,5-tetrahyro-1,4-benzoxazepin-7-yl}[1,3]thiazolo[5,4-b]pyridin-2-amine] | ≤ 100
Cc1cc(-c2cnc3sc(N)nc3c2)cc2c1OCCN(c1nc(CN(C)C)nc(Cl)c1C(C)C)C2 [Compound 63, 6-(4-{6-chloro-2-[(dimethylamino)methyl]-5-(1-methylethyl)pyrimidin-4-yl}-9-methyl-2,3,4,5-tetrahydro-1,4-benzoxazepin-7-yl)[1,3]thiazolo[5,4-b]pyridin-2-amine] | ≤ 100
COCCOc1nc(C)c(C(C)C)c(N2CCOc3c(C)cc(-c4cnc5sc(N)nc5c4)cc3C2)n1 [Compound 154, 6-{9-methyl-4-[6-methyl-5-(1-methylethyl)-2-{[2-(methyloxy)ethyl]oxy}pyrimidin-4-yl]-2,3,4,5-tetrahydro-1,4-benzoxazepin-7-yl}[1,3]thiazolo[5,4-b]pyridin-2-amine] | ≤ 100
Cc1cc(-c2cnc3sc(N)nc3c2)cc2c1OCCN(c1nc(N)ccc1C#N)C2 [Compound 55, 6-amino-2-[7-(2-amino[1,3]thiazolo[5,4-b]pyridin-6-yl)-9-methyl-2,3-dihydro-1,4-benzoxazepin-4(5H)-yl]pyridine-3-carbonitrile] | ≤ 100
COCCc1c(C)ncnc1N1CCOc2c(C)cc(-c3cnc4sc(N)nc4c3)cc2C1 [Compound 129, 6-(9-methyl-4-{6-methyl-5-[2-(methyloxy)ethyl]pyrimidin-4-yl}-2,3,4,5-tetrahydrio-1,4-benzoxazepin-7-yl)[1,3]thiazolo[5,4-b]pyridin-2-amine] | ≤ 100
Cc1cc(-c2ccc(-c3ncc[nH]3)cc2)cc2c1OCCN(c1nc(N)nc(C)c1C(C)C)C2 [Compound 42, 4-{7-[4-(1H-imidazol-2-yl)phenyl]-9-methyl-2,3-dihydro-1,4-benzoxazepin-4(5H)-yl}-6-methyl-5-(1-methylethyl)pyrimidin-2-amine] | ≤ 100
Cc1cc(-c2cnc3sc(N)nc3c2)cc2c1OCCN(c1nc([S+](C)[O-])nc(C)c1C(C)C)C2 (centres unmarked) [Compound 99, 6-{9-methyl-4-[6-methyl-5-(1-methylethyl)-2-(methylsulfinyl)pyrimidin-4-yl]-2,3,4,5-tetrahydro-1,4-benzoxazepin-7-yl}[1,3]thiazolo[5,4-b]pyridin-2-amine] | ≤ 100
COCCc1c(C)nc(C)nc1N1CCOc2c(C)cc(-c3cnc4sc(N)nc4c3)cc2C1 [Compound 132, 6-(4-{2,6-dimethyl-5-[2-(methyloxy)ethyl]pyrimidin-4-yl}-9-methyl-2,3,4,5-tetrahydro-1,4-benzoxazepin-7-yl)[1,3]thiazolo[5,4-b]pyridin-2-amine] | ≤ 100
Cc1cc(-c2cnc(Cl)c(NS(C)(=O)=O)c2)cc2c1OCCN(c1ncc(C(F)(F)F)c(N)n1)C2 [Compound 15, N-(5-{4-[4-amino-5-(trifluoromethyl)pyrimidin-2-yl]-9-methyl-2,3,4,5-tetrahydro-1,4-benzoxazepin-7-yl}-2-chloropyridin-3-yl)methanesulfonamide] | 100 to 500
